# Results published in patent publication US20230398130A1, “METHODS AND COMPOSITIONS FOR DIFFERENTIATING STEM CELLS” (Massachusetts Institute of Technology, priority 2020, published 2023).
# Columns and labels:
# ISC-enriched organoids [1] = assay: Primary screen, 384-well 2.5-D organoid differentiation (ENR+CD, 6 days): basal lysozyme secretion (LYZ.NS); format: cell-based, murine; settings: for Dose.FC.LYZ.NS (log 2 fold change, basal lysozyme secretion): vs plate median; for Dose.FC.LYZ.NS: FC vs plate median; for SSMD.LYZ.NS: strictly standardized mean difference
# Text: (§1) High-throughput screening.
# ISC-enriched organoids [2] = assay: Primary screen, 384-well 2.5-D organoid differentiation (ENR+CD, 6 days): carbachol-induced lysozyme secretion (LYZ.S); format: cell-based, murine; settings: for Dose.FC.LYZ.S (log 2 fold change, carbachol-induced lysozyme secretion): vs plate median; for Dose.FC.LYZ.S: FC vs plate median; for Z.LYZ.S: standard z score; for SSMD.LYZ.S: strictly standardized mean difference
# Text: as §1
# ISC-enriched organoids [3] = assay: Primary screen, 384-well 2.5-D organoid differentiation (ENR+CD, 6 days, Target Selective Inhibitor Library, vs whole-plate median): ATP (CellTiter-Glo 3D, CTG); settings: for Dose.FC.CTG (log 2 fold change, ATP): vs plate median; for Dose.FC.CTG: FC vs plate median; for SSMD.CTG: strictly standardized mean difference
# [4] = primary screen, dose 0.08 uM, ENR+CD 6 days
# [5] = primary screen, dose 0.08 uM, standard z score of FC
# [6] = primary screen, dose 0.40 uM, ENR+CD 6 days
# [7] = primary screen, dose 0.40 uM, standard z score of FC
# [8] = primary screen, dose 2.00 uM, ENR+CD 6 days
# [9] = primary screen, dose 2.00 uM, standard z score of FC
# [10] = primary screen, dose 10.00 uM, ENR+CD 6 days
# [11] = primary screen, dose 10.00 uM, standard z score of FC
# [12] = Dose 0.08 uM, primary screen, standard z score
# [13] = Dose 0.40 uM, primary screen, standard z score
# [14] = Dose 2.00 uM, primary screen, standard z score
# [15] = Dose 10.00 uM, primary screen, standard z score
# [16] = primary screen, 1st of the 4 dose lines of the treatment (dose not given)
# [17] = primary screen, 2nd of the 4 dose lines of the treatment (dose not given)
# [18] = primary screen, 3rd of the 4 dose lines of the treatment (dose not given)
# [19] = primary screen, 4th of the 4 dose lines of the treatment (dose not given)
# [20] = Dose 0.08 uM, standard z score of FC
# [21] = Dose 0.40 uM, standard z score of FC
# [22] = Dose 2.00 uM, standard z score of FC
# [23] = Dose 10.00 uM, standard z score of FC
compound,measurement,setting,value
COc1nc(C)cnc1NS(=O)(=O)c1cccnc1-c1ccc(-c2nnco2)cc1 [Zibotentan (ZD4054)],Z.LYZ.NS (standard z score),ISC-enriched organoids [1]; dose 0.08 uM,0.820
same,"Dose.FC.LYZ.NS (log 2 fold change, basal lysozyme secretion)",ISC-enriched organoids [1]; dose 0.08 uM,0.094
same,Z.LYZ.NS (standard z score),ISC-enriched organoids [1]; dose 0.40 uM,0.474
same,"Dose.FC.LYZ.NS (log 2 fold change, basal lysozyme secretion)",ISC-enriched organoids [1]; dose 0.40 uM,0.054
same,Z.LYZ.NS (standard z score),ISC-enriched organoids [1]; dose 2.00 uM,−0.029
same,"Dose.FC.LYZ.NS (log 2 fold change, basal lysozyme secretion)",ISC-enriched organoids [1]; dose 2.00 uM,−0.003
same,Z.LYZ.NS (standard z score),ISC-enriched organoids [1]; dose 10.00 uM,0.877
same,"Dose.FC.LYZ.NS (log 2 fold change, basal lysozyme secretion)",ISC-enriched organoids [1]; dose 10.00 uM,0.101
same,"Dose.FC.LYZ.S (log 2 fold change, carbachol-induced lysozyme secretion)",ISC-enriched organoids [2]; dose 0.08 uM,0.168
same,"Dose.FC.LYZ.S (log 2 fold change, carbachol-induced lysozyme secretion)",ISC-enriched organoids [2]; dose 0.40 uM,0.130
same,"Dose.FC.LYZ.S (log 2 fold change, carbachol-induced lysozyme secretion)",ISC-enriched organoids [2]; dose 2.00 uM,−0.038
same,"Dose.FC.LYZ.S (log 2 fold change, carbachol-induced lysozyme secretion)",ISC-enriched organoids [2]; dose 10.00 uM,0.050
same,Z.CTG (standard z score),ISC-enriched organoids [3]; dose 0.08 uM,0.249
same,"Dose.FC.CTG (log 2 fold change, ATP)",ISC-enriched organoids [3]; dose 0.08 uM,0.104
same,Z.CTG (standard z score),ISC-enriched organoids [3]; dose 0.40 uM,−0.022
same,"Dose.FC.CTG (log 2 fold change, ATP)",ISC-enriched organoids [3]; dose 0.40 uM,−0.009
same,Z.CTG (standard z score),ISC-enriched organoids [3]; dose 2.00 uM,−1.834
same,"Dose.FC.CTG (log 2 fold change, ATP)",ISC-enriched organoids [3]; dose 2.00 uM,−0.768
same,Z.CTG (standard z score),ISC-enriched organoids [3]; dose 10.00 uM,−0.003
same,"Dose.FC.CTG (log 2 fold change, ATP)",ISC-enriched organoids [3]; dose 10.00 uM,−0.001
C=CC(=O)Nc1cccc(Nc2nc(Nc3ccc(OCCOC)cc3)ncc2F)c1 [AVL-292],Dose.FC.LYZ.NS,ISC-enriched organoids [1]; [4],0.095 log 2 fold change
same,Z.LYZ.NS,ISC-enriched organoids [1]; [5],0.831
same,Dose.FC.LYZ.NS,ISC-enriched organoids [1]; [6],0.052 log 2 fold change
same,Z.LYZ.NS,ISC-enriched organoids [1]; [7],0.451
same,Dose.FC.LYZ.NS,ISC-enriched organoids [1]; [8],−0.112 log 2 fold change
same,Z.LYZ.NS,ISC-enriched organoids [1]; [9],−0.979
same,Dose.FC.LYZ.NS,ISC-enriched organoids [1]; [10],−0.213 log 2 fold change
same,Z.LYZ.NS,ISC-enriched organoids [1]; [11],−1.858
same,Dose.FC.LYZ.S,ISC-enriched organoids [2]; [4],0.235 log 2 fold change
same,Dose.FC.LYZ.S,ISC-enriched organoids [2]; [6],0.106 log 2 fold change
same,Dose.FC.LYZ.S,ISC-enriched organoids [2]; [8],−0.206 log 2 fold change
same,Dose.FC.LYZ.S,ISC-enriched organoids [2]; [10],−0.376 log 2 fold change
same,Dose.FC.CTG,ISC-enriched organoids [3]; [4],0.217 log 2 fold change
same,Z.CTG,ISC-enriched organoids [3]; [5],0.518
same,Dose.FC.CTG,ISC-enriched organoids [3]; [6],0.057 log 2 fold change
same,Z.CTG,ISC-enriched organoids [3]; [7],0.135
same,Dose.FC.CTG,ISC-enriched organoids [3]; [8],−0.058 log 2 fold change
same,Z.CTG,ISC-enriched organoids [3]; [9],−0.138
same,Dose.FC.CTG,ISC-enriched organoids [3]; [10],−0.778 log 2 fold change
same,Z.CTG,ISC-enriched organoids [3]; [11],−1.859
I-BET151 (GSK1210151A),Dose.FC.LYZ.NS,"ISC-enriched organoids [1]; Dose 0.08 uM, primary screen",−0.116 log 2 fold change
same,Z.LYZ.NS,ISC-enriched organoids [1]; [12],−1.010
same,Dose.FC.LYZ.NS,"ISC-enriched organoids [1]; Dose 0.40 uM, primary screen",−0.248 log 2 fold change
same,Z.LYZ.NS,ISC-enriched organoids [1]; [13],−2.159
same,Dose.FC.LYZ.NS,"ISC-enriched organoids [1]; Dose 2.00 uM, primary screen",−0.299 log 2 fold change
same,Z.LYZ.NS,ISC-enriched organoids [1]; [14],−2.601
same,Dose.FC.LYZ.NS,"ISC-enriched organoids [1]; Dose 10.00 uM, primary screen",−0.284 log 2 fold change
same,Z.LYZ.NS,ISC-enriched organoids [1]; [15],−2.473
same,SSMD.LYZ.NS,ISC-enriched organoids [1]; [16],−0.856
same,SSMD.LYZ.NS,ISC-enriched organoids [1]; [17],−1.677
same,SSMD.LYZ.NS,ISC-enriched organoids [1]; [18],−1.629
same,SSMD.LYZ.NS,ISC-enriched organoids [1]; [19],−1.342
same,Dose.FC.LYZ.S,"ISC-enriched organoids [2]; Dose 0.08 uM, primary screen",−0.242 log 2 fold change
same,Dose.FC.LYZ.S,"ISC-enriched organoids [2]; Dose 0.40 uM, primary screen",−0.344 log 2 fold change
same,Dose.FC.LYZ.S,"ISC-enriched organoids [2]; Dose 2.00 uM, primary screen",−0.416 log 2 fold change
same,Dose.FC.LYZ.S,"ISC-enriched organoids [2]; Dose 10.00 uM, primary screen",−0.408 log 2 fold change
same,Z.LYZ.S,ISC-enriched organoids [2]; [16],−1.563
same,Z.LYZ.S,ISC-enriched organoids [2]; [17],−2.225
same,Z.LYZ.S,ISC-enriched organoids [2]; [18],−2.687
same,Z.LYZ.S,ISC-enriched organoids [2]; [19],−2.641
same,SSMD.LYZ.S,ISC-enriched organoids [2]; [16],−1.087
same,SSMD.LYZ.S,ISC-enriched organoids [2]; [17],−1.784
same,SSMD.LYZ.S,ISC-enriched organoids [2]; [18],−1.815
same,SSMD.LYZ.S,ISC-enriched organoids [2]; [19],−1.694
same,Dose.FC.CTG,"ISC-enriched organoids [3]; Dose 0.08 uM, primary screen",−0.016 log 2 fold change
same,Z.CTG,ISC-enriched organoids [3]; [12],−0.039
same,Dose.FC.CTG,"ISC-enriched organoids [3]; Dose 0.40 uM, primary screen",−0.174 log 2 fold change
same,Z.CTG,ISC-enriched organoids [3]; [13],−0.415
same,Dose.FC.CTG,"ISC-enriched organoids [3]; Dose 2.00 uM, primary screen",−0.502 log 2 fold change
same,Z.CTG,ISC-enriched organoids [3]; [14],−1.200
same,Dose.FC.CTG,"ISC-enriched organoids [3]; Dose 10.00 uM, primary screen",−0.935 log 2 fold change
same,Z.CTG,ISC-enriched organoids [3]; [15],−2.233
same,SSMD.CTG,ISC-enriched organoids [3]; [16],−0.045
same,SSMD.CTG,ISC-enriched organoids [3]; [17],−0.433
same,SSMD.CTG,ISC-enriched organoids [3]; [18],−1.788
same,SSMD.CTG,ISC-enriched organoids [3]; [19],−2.304
Nc1ncnc2n[nH]c(Nc3ccc(F)cc3)c12 [CGP57380],Dose.FC.LYZ.NS,"ISC-enriched organoids [1]; Dose 0.08 uM, ENR+CD, 6 days",0.218 log 2 fold change
same,Z.LYZ.NS,ISC-enriched organoids [1]; [20],1.900
same,Dose.FC.LYZ.NS,"ISC-enriched organoids [1]; Dose 0.40 uM, ENR+CD, 6 days",−0.041 log 2 fold change
same,Z.LYZ.NS,ISC-enriched organoids [1]; [21],−0.354
same,Dose.FC.LYZ.NS,"ISC-enriched organoids [1]; Dose 2.00 uM, ENR+CD, 6 days",−0.055 log 2 fold change
same,Z.LYZ.NS,ISC-enriched organoids [1]; [22],−0.477
same,Dose.FC.LYZ.NS,"ISC-enriched organoids [1]; Dose 10.00 uM, ENR+CD, 6 days",−0.037 log 2 fold change
same,Z.LYZ.NS,ISC-enriched organoids [1]; [23],−0.321
same,Dose.FC.LYZ.S,"ISC-enriched organoids [2]; Dose 0.08 uM, ENR+CD, 6 days",0.096 log 2 fold change
same,Dose.FC.LYZ.S,"ISC-enriched organoids [2]; Dose 0.40 uM, ENR+CD, 6 days",0.054 log 2 fold change
same,Dose.FC.LYZ.S,"ISC-enriched organoids [2]; Dose 2.00 uM, ENR+CD, 6 days",−0.095 log 2 fold change
same,Dose.FC.LYZ.S,"ISC-enriched organoids [2]; Dose 10.00 uM, ENR+CD, 6 days",−0.088 log 2 fold change
same,Dose.FC.CTG,"ISC-enriched organoids [3]; Dose 0.08 uM, ENR+CD, 6 days",0.108 log 2 fold change
same,Z.CTG,ISC-enriched organoids [3]; [20],0.258
same,Dose.FC.CTG,"ISC-enriched organoids [3]; Dose 0.40 uM, ENR+CD, 6 days",−0.293 log 2 fold change
same,Z.CTG,ISC-enriched organoids [3]; [21],−0.700
same,Dose.FC.CTG,"ISC-enriched organoids [3]; Dose 2.00 uM, ENR+CD, 6 days",−0.460 log 2 fold change
same,Z.CTG,ISC-enriched organoids [3]; [22],−1.098
same,Dose.FC.CTG,"ISC-enriched organoids [3]; Dose 10.00 uM, ENR+CD, 6 days",0.055 log 2 fold change
same,Z.CTG,ISC-enriched organoids [3]; [23],0.132
